Values of other authors as cited in patent US5668009A, “Methods for treating cotton-containing fabrics with CBH I enriched cellulase” (Genencor International, Inc., priority 1995, dated 1997).

Columns and labels:
[1] = molecular target: exo-cellobiohydrolase (CBH) type components, as characterized for CBH I and CBH II from Trichoderma reesei; details: competitive inhibition; general characterisation of CBH components; read-out: Ki (cellobiose), competitive inhibition
[2] = molecular target: β-Glucosidase (BG) components of fungal cellulase; details: competitive inhibition; general characterisation of BG components; read-out: Ki (glucose), competitive inhibition

| Ki [1] [µM] | Compound | Ki [2] [µM] |
| --- | --- | --- |
| ~1000 | OC[C@H]1O[C@@H](O[C@H]2[C@H](O)[C@@H](O)C(O)O[C@@H]2CO)[C@H](O)[C@@H](O)[C@@H]1O (some centres unmarked) [cellobiose] | – |
| – | OC[C@H]1OC(O)[C@H](O)[C@@H](O)[C@@H]1O (some centres unmarked) [glucose] | ~1000 |
